Data as given in patent US20200190062A1, “HETEROCYCLIC COMPOUND AND PHARMACEUTICAL COMPOSITION COMPRISING SAME” (BEYONDBIO INC., priority 2015, published 2020).
Structures can show the parent of a compound that is named as a salt.

Key:
Experiment in all cases: Inhibition of cancer cell proliferation (MTT)
Type in all cases: cell-based, human
A549 = tested on: A549
Method: (§1) A test was conducted to confirm whether the compounds obtained in the above Examples can inhibit proliferation of human colon carcinoma cell line HCT116, glioblastoma cell lines U-87MG and T98G, neuroblastoma cell lines SH-SYSY and SK-N-SH, and lung cancer cell lines A549 and NCI-H23.
(§2) HCT116, U-87MG, SH-SYSY, SK-N-SH and A549 cells were culured in DMEM medium containing 10% FBS. T98G cells were cultured in MEM medium containing 10% FBS and NCI-H23 cells were cultured in […] medium containing 10% FBS. In order to analyze an inhibition of proliferation, HCT116 cells were dispensed in 2000 cells/well into 96 well plate, and SH-SYSY, SK-N-SH, U-87MG, T98G, A549, and NCI-H23 cells were dispensed in 3000 cells/well into 96 well plate. And then, the cells were cultured at 5% CO2 and 37° C. for 16 hrs to allow the cells to attach to the wells. The compounds of the above Examples were added to each well at a concentration of 0.004, 0.013, 0.04, 0.12, 0.37, 1.1, 3.3, and 10 uM, and the culture volume was adjusted to 100 ul. A control group was treated with dimethylsulfoxide (DMSO) at the same concentration, 0.08%, as used to treat the test compounds. Afterwards, cells were cultured at 5% CO2 and 37° C. for 72 hrs. And then, 10 ul of the solution of MTT (3-(4,5-dimethylthiazol-2-yl)-2,5-diphenyltetrazolium bromide) dissolved in PBS at 5 mg/ml was added to each well to identify viable cells and the cells were cultured for further 2 hrs. The culture solution was removed, 100 ul of DMSO was added to dissolve the formed formazan and then an absorbance was measured at 535 nm. Based on the absorbance of the control cells not treated with the compounds, the amounts of the viable cells according to the concentration of the compounds were calculated. GI50 (growth inhibition 50) value which is the concentration of the compound to inhibit cancer cell proliferation by 50% was calculated using Graphpad Prism 5.0 program.

HCT116 = tested on: HCT116
Method: as §1, §2

NCI-H23 = tested on: NCI-H23
Method: as §1, §2

T98G = tested on: T98G
Method: as §1, §2

U-87MG = tested on: U-87MG
Method: as §1, §2

Cc1c(-c2nc(-c3ccnc(N)c3F)ccc2O)nc(N)nc1C1CCCN(C)C1 (stereo not drawn) [Example 97]
GI50 (A549; 72 hrs): 160 nM | GI50 (HCT116; 72 hrs): 110 nM | GI50 (NCI-H23; 72 hrs): 290 nM | GI50 (T98G; 72 hrs): 160 nM | GI50 (U-87MG; 72 hrs): 120 nM

CCc1cnc(N)nc1-c1nc(-c2ccnc(N)c2F)ccc1O [Example 56, 2′-amino-6-(2-amino-5-ethylpyrimidin-4-yl)-3′-fluoro-[2,4′-bipyridin]-5-ol]
GI50 (A549; Homo sapiens, A549, 72 h): 80 nM | GI50 (HCT116; 72 hrs): 30 nM | GI50 (NCI-H23; 72 hrs): 90 nM | GI50 (T98G; 72 hrs): 130 nM | GI50 (U-87MG; Homo sapiens, U-87 MG, 72 h): 60 nM

CN1CCC(c2cc(-c3nc(-c4ccnc(N)c4F)ccc3O)nc(N)n2)CC1 [Example 77, 2′-amino-6-(2-amino-(6-(1-methylpiperidin-4-yl)pyrimidin-4-yl)-3′-fluoro-[2,4′-bipyridin]-5-ol 4hydrochloride]
GI50 (A549; 72 hrs): 10 nM | GI50 (HCT116; 72 hrs): 3 nM | GI50 (NCI-H23; 72 hrs): 30 nM | GI50 (T98G; 72 hrs): 30 nM | GI50 (U-87MG; 72 hrs): 10 nM

CCCN1CCCC(c2cc(-c3nc(-c4ccnc(N)c4F)ccc3O)nc(N)n2)C1 (stereo not drawn) [Example 40, 2′-amino-6-(2-amino-6-(1-propylpiperidin-3-yl)pyrimidin-4-yl)-3′-fluoro-[2,4′-bipyridin]-5-ol]
GI50 (A549; 72 hrs): 10 nM | GI50 (HCT116; Homo sapiens, HCT-116, 72 h): 10 nM | GI50 (NCI-H23; Homo sapiens, NCI-H23, 72 h): 30 nM | GI50 (T98G; Homo sapiens, T98G, 72 h): 50 nM | GI50 (U-87MG; Homo sapiens, U-87 MG, 72 h): 20 nM

Cc1c(-c2nc(-c3ccnc(N)c3F)ccc2O)nc(N)nc1C1CCCN(C(C)C)C1 (stereo not drawn) [Example 99, 2′-amino-6-(2-amino-6-(1-isopropylpiperidin-3-yl)-5-methylpyrimidin-4-yl)-3′-fluoro-[2,4′-bipyridin]-5-ol 4hydrochloride]
GI50 (HCT116; 72 hrs): 2030 nM | GI50 (T98G; Homo sapiens, T98G, 72 h): 3790 nM | GI50 (U-87MG; 72 hrs): 2570 nM

CCc1cnc(N)nc1-c1nc(-c2ccnc(N)c2F)ccc1O [Example 102, 2′-amino-6-(2-amino-5-ethylpyrimidin-4-yl)-3′-fluoro-[2,4′-bipyridin]-5-ol 3hydrochloride]
GI50 (A549; 72 hrs): 40 nM | GI50 (HCT116; 72 hrs): 10 nM | GI50 (NCI-H23; 72 hrs): 30 nM | GI50 (T98G; 72 hrs): 20 nM | GI50 (U-87MG; 72 hrs): 30 nM

Cc1nc(N)nc(-c2nc(-c3ccnc(N)c3F)ccc2O)c1C [Example 60, 2′-amino-6-(2-amino-5,6-dimethylpyrimidin-4-yl)-3′-fluoro-[2,4′-bipyridin]-5-ol]
GI50 (A549; Homo sapiens, A549, 72 h): 120 nM | GI50 (HCT116; Homo sapiens, HCT-116, 72 h): 50 nM | GI50 (NCI-H23; Homo sapiens, NCI-H23, 72 h): 220 nM | GI50 (T98G; Homo sapiens, T98G, 72 h): 260 nM | GI50 (U-87MG; Homo sapiens, U-87 MG, 72 h): 220 nM

Cc1c(-c2nc(-c3ccnc(N)c3F)ccc2O)nc(N)nc1C1CCN(C)CC1 [Example 93, 2′-amino-6-(2-amino-5-methyl-6-(1-methylpiperidin-4-yl)pyrimidin-4-yl)-3′-fluoro-[2,4′-bipyridin]-5-ol 4hydrochloride]
GI50 (A549; 72 hrs): 100 nM | GI50 (HCT116; 72 hrs): 70 nM | GI50 (NCI-H23; 72 hrs): 230 nM | GI50 (T98G; 72 hrs): 100 nM | GI50 (U-87MG; 72 hrs): 110 nM

Nc1cc(-c2ncc(O)c(-c3ccnc(N)n3)n2)ccn1 [Example 5, 2′-amino-2-(2-aminopyridin-4-yl)-[4,4′-bipyrimidin]-5-ol]
GI50 (HCT116; Homo sapiens, HCT-116, 72 h): 3590 nM

CN1CCC(c2cc(-c3nc(-c4ccnc(N)c4F)ccc3O)nc(N)n2)CC1 [Example 79, 2′-amino-6-(2-amino-6-(1-methylpiperidin-4-yl)pyrimidin-4-yl)-3′-fluoro-[2,4′-bipyridin]-5-ol oxalate]
GI50 (HCT116; 72 hrs, oxalate): 40 nM

Cc1cc(-c2nc(-c3ccncc3F)ccc2O)nc(N)n1 [Example 26, 6-(2-amino-6-methylpyrimidin-4-yl)-3′-fluoro-[2,4′-bipyridin]-5-ol]
GI50 (HCT116; Homo sapiens, HCT-116, 72 h): 1180 nM

Cc1c(-c2nc(-c3ccnc(N)c3F)ccc2O)nc(N)nc1C1CCN(C(C)C)CC1 [Example 45, 2′-amino-6-(2-amino-6-(1-isopropylpiperidin-4-yl)-5-methylpyrimidin-4-yl)-3′-fluoro-[2,4′-bipyridin]-5-ol]
GI50 (A549; Homo sapiens, A549, 72 h): 150 nM | GI50 (HCT116; Homo sapiens, HCT-116, 72 h): 90 nM | GI50 (NCI-H23; Homo sapiens, NCI-H23, 72 h): 400 nM | GI50 (T98G; Homo sapiens, T98G, 72 h): 160 nM | GI50 (U-87MG; Homo sapiens, U-87 MG, 72 h): 100 nM

CC(C)c1cc(-c2nc(-c3ccnc(N)c3F)ccc2O)nc(N)n1 [Example 81, 2′-amino-6-(2-amino-6-isopropylpyrimidin-4-yl)-3′-fluoro-[2,4′-bipyridin]-5-ol 3hydrochloride]
GI50 (A549; 72 hrs): 140 nM | GI50 (HCT116; 72 hrs): 20 nM | GI50 (NCI-H23; 72 hrs): 70 nM

CC(C)c1cc(-c2nc(-c3ccnc(N)c3F)ccc2O)nc(N)n1 [Example 82, 2′-amino-6-(2-amino-6-isopropylpyrimidin-4-yl)-3′-fluoro-[2,4′-bipyridin]-5-ol 2acetate]
GI50 (A549; 72 hrs): 170 nM | GI50 (HCT116; 72 hrs): 20 nM | GI50 (NCI-H23; 72 hrs): 90 nM

Nc1nccc(-c2ccc(O)c(-c3ccnc(N)n3)n2)n1 [Example 62, 2,6-bis(2-aminopyrimidin-4-yl)pyridin-3-ol oxalate]
GI50 (HCT116; 72 hrs, oxalate): 190 nM

CN1CCC(c2cc(-c3nc(-c4ccnc(N)c4F)ccc3O)nc(N)n2)CC1 [Example 78, 2′-amino-6-(2-amino-6-(1-methylpiperidin-4-yl)pyrimidin-4-yl)-3′-fluoro-[2,4′-bipyridin]-5-ol 2acetate]
GI50 (HCT116; 72 hrs): 40 nM

Cc1cc(-c2nc(-c3ccc(O)cc3)ccc2O)nc(N)n1 [Example 27, 2-(2-amino-6-methylpyrimidin-4-yl)-6-(4-hydroxyphenyl)pyridin-3-ol]
GI50 (HCT116; Homo sapiens, HCT-116, 72 h): 290 nM

Nc1nccc(-c2cnc(O)c(-c3ccnc(N)n3)c2)n1 [Example 6, 3,5-bis(2-aminopyrimidin-4-yl)pyridin-2-ol]
GI50 (HCT116; Homo sapiens, HCT-116, 72 h): 2300 nM

Cc1cc(-c2nc(-c3ccncc3)ccc2O)nc(N)n1 [Example 25, 6-(2-amino-6-methylpyrimidin-4-yl)-[2,4′-bipyridin]-5-ol]
GI50 (HCT116; Homo sapiens, HCT-116, 72 h): 290 nM

CN1CCCC(c2cc(-c3nc(-c4ccnc(N)c4F)ccc3O)nc(N)n2)C1 (stereo not drawn) [Example 89, 2′-amino-6-(2-amino-6-(1-methylpiperidin-3-yl)pyrimidin-4-yl)-3′-fluoro-[2,4′-bipyridin]-5-ol 4hydrochloride]
GI50 (A549; 72 hrs): 10 nM | GI50 (NCI-H23; 72 hrs): 20 nM | GI50 (T98G; 72 hrs): 20 nM

Nc1nccc(-c2nc(-c3cccnc3)ccc2O)n1 [Example 11, 6-(2-aminopyrimidin-4-yl)-[2,3′-bipyridin]-5-ol]
GI50 (HCT116; Homo sapiens, HCT-116, 72 h): 6080 nM

Cc1c(-c2nc(-c3ccnc(N)c3F)ccc2O)nc(N)nc1C1CCCN(C(C)C)C1 (stereo not drawn) [Example 48, 2′-amino-6-(2-amino-6-(1-isopropylpiperidin-3-yl)-5-methylpyrimidin-4-yl)-3′-fluoro-[2,4′-bipyridin]-5-ol]
GI50 (HCT116; Homo sapiens, HCT-116, 72 h): 2910 nM | GI50 (U-87MG; Homo sapiens, U-87 MG, 72 h): 3820 nM

Nc1nccc(-c2ccc(O)c(-c3ccnc(N)n3)n2)n1 [Example 64, 2,6-bis(2-aminopyrimidin-4-yl)pyridin-3-ol sulfate]
GI50 (HCT116; 72 hrs): 190 nM

Cc1cc(-c2nc(-c3cccc(N)c3)ccc2O)nc(N)n1 [Example 30, 2-(2-amino-6-methylpyrimidin-4-yl)-6-(3-aminophenyl)pyridin-3-ol]
GI50 (HCT116; Homo sapiens, HCT-116, 72 h): 720 nM

CN1CCC(c2cc(-c3nc(-c4ccnc(N)c4F)ccc3O)nc(N)n2)CC1 [Example 80, 2′-amino-6-(2-amino-6-(1-methylpiperidin-4-yl)pyrimidin-4-yl)-3′-fluoro-[2,4′-bipyridin]-5-ol malonate]
GI50 (HCT116; 72 hrs): 140 nM

Nc1nccc(-c2ccc(O)c(-c3ccnc(N)n3)n2)n1 [Example 63, 2,6-bis(2-aminopyrimidin-4-yl)pyridin-3-ol malonate]
GI50 (HCT116; 72 hrs): 190 nM

Nc1cccc(-c2nc(-c3ccnc(N)n3)ccc2O)n1 [Example 7, 6′-amino-6-(2-aminopyrimidin-4-yl)-[2,2′-bipyridin]-3-ol]
GI50 (HCT116; Homo sapiens, HCT-116, 72 h): 670 nM

Cc1cc(-c2nc(-c3ccc(O)cc3F)ccc2O)nc(N)n1 [Example 29, 2-(2-amino-6-methylpyrimidin-4-yl)-6-(2-fluoro-4-hydroxyphenyl)pyridin-3-ol]
GI50 (HCT116; Homo sapiens, HCT-116, 72 h): 1260 nM
